From patent publication US5264441A, “Disubstituted ureas and thioureas derivatives” (Farmitalia Carlo Erba S.r.l., priority 1991, dated 1993)

What was measured:
[1] = biological target: T1, acyl CoA:cholesterol acyltransferase (ACAT-EC 2.3.1.26) (Oryctolagus cuniculus, UniProt A0A5F9CPP4); assay: Inhibition of ACAT activity in microsomal preparations from atherosclerotic rabbit thoracic aorta; assay type: biochemical; conditions: microsomes from atherosclerotic rabbit thoracic aorta; read-out: IC50 values for the inhibition activity in microsomes from atherosclerotic rabbit thoracic aortae
T1 construct: microsomal preparations from atherosclerotic rabbit thoracic aorta; from tissue; host or cells: microsomes of atherosclerotic rabbit thoracic aorta
T1 sequence (A0A5F9CPP4 1-555): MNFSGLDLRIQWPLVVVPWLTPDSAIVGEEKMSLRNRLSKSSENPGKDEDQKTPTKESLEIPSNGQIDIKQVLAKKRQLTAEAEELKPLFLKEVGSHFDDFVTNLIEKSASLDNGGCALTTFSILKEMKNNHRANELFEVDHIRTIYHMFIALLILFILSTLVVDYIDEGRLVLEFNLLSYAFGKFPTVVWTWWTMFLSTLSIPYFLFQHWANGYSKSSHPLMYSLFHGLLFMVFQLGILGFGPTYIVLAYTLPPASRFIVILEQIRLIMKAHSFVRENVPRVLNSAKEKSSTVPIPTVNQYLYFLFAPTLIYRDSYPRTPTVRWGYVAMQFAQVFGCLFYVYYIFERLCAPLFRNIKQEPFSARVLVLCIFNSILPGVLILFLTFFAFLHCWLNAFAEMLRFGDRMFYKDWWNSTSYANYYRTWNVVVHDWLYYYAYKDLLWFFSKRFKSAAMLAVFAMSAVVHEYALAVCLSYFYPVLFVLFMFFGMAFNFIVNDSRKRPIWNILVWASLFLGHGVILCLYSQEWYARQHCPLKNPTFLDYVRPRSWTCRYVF

[2] = Hypolipidaemic activity in Sprague-Dawley rats fed a 1.5% cholesterol-enriched diet for a week; assay type: in vivo; conditions: for Blood Total Cholesterol, Treating, Mean ± SE / Blood Total Cholesterol, % Change: 1 mg/kg/day, rats fed […] cholesterol-enriched diet for a week; for Blood Total Cholesterol, Treating, Mean ± SE: n = 9, * p ≤ 0.01 (Dunnett's test); for Blood Total Cholesterol, % Change: treating vs control
Experimental: Moreover, the compounds of the invention are useful as antidyslipidaemic agents, indeed they show a high activity in lowering total serum cholesterol and triglycerides. […] Table II exemplifies the results obtained by testing the hypolipidaemic activity of a representative group of compounds of the invention administered at the dose of 1 mg/kg/day to Sprague-Dawley rats fed 1.5% cholesterol-enriched diet for a week.
Hypocholesterolaemic activity of FCE compounds given at
1 mg/kg/day to rats fed 1.5% cholesterol-enriched diet

[3] = as above; assay type: in vivo; conditions: Rattus norvegicus, 168 h, 1.5% cholesterol-enriched chow for a week, compound added to the diet
[4] = Hypolipidaemic effect in New Zealand White rabbits fed a 1% cholesterol-enriched diet for 30 days; assay type: in vivo; conditions: compound added to the diet; for ED50: Oryctolagus cuniculus, 720 h
[5] = Liver cholesterol accumulation in albino mice fed a 1.5% cholesterol-enriched diet for seven hours; assay type: in vivo; conditions: acute oral dose of 10 mg/kg
[6] = liver, read-out: ED50 for the cholesterol lowering effect in liver
[7] = plasma, read-out: ED50 for the cholesterol lowering effect in plasma

Row | IC50 [1] [nM] | SMILES | Blood Total Cholesterol, Treating, Mean ± SE [2] [mg/dL] | Blood Total Cholesterol, % Change [2] [%] | other results
1 | 7.47 | CCOC(CNC(=O)Nc1c(C(C)C)cccc1C(C)C)(OCC)c1ccccc1 [FCE 27020, N-[2,6-bis(1-methylethyl)phenyl]-N'-(2,2-diethoxy-2-phenyl) ethylurea] |  |  | 
2 | 9.5 | CC(C)c1cccc(C(C)C)c1NC(=O)NCC1(C2CCCCC2)SCCS1 [FCE 27612, N-[2,6-bis(1-methylethyl)phenyl]-N'-(2-cyclohexyl-1,3-dithiolan-2-yl)methylurea] | 59 ± 7 | -72 | 
3 |  | CC(C)c1cccc(C(C)C)c1NC(=O)NCC1(c2ccccc2)O[C@H](C)[C@@H](C)O1 [FCE 27529, N-[2,6-bis(1-methylethyl)phenyl]-N'-[(4R,5R)-4,5-dimethyl-2-phenyldioxolan-2-yl]methylurea] | 75 ± 4 | -62 | 
4 |  | CC(C)c1cccc(C(C)C)c1NC(=O)NCC1(C2CCCCC2)O[C@@H](C)[C@H](C)O1 [FCE 27480, N-[2,6-bis(1-methylethyl)phenyl]-N'-[(4S, 5S)-2-cyclohexyl-4,5-dimethyldioxolan-2-yl]methylurea] | 85 ± 9 | -46 | 
5 |  | CC(C)c1cccc(C(C)C)c1NC(=O)NCC1(c2ccc(N(C)C)cc2)OCC(C)(C)CO1 [FCE 27607, N-[2,6-bis(1-methylethyl)phenyl]-N'-[2-(4-dimethylaminophenyl)-5,5-dimethyl-1,3-dioxan-2-yl]methylurea] | 110 ± 8 | -48 | 
6 | 6.5 | CC(C)c1cccc(C(C)C)c1NC(=O)NCC1(C2CCCCC2)OCC(C)(C)CO1 [FCE 27356, N-[2,6-bis(1-methylethyl)phenyl]-N'-(2-cyclohexyl-5,5-dimethyl-1,3-dioxan-2-yl)methylurea] |  |  | 
7 |  | CC(C)c1cccc(C(C)C)c1NC(=O)NCC1(c2ccccc2)OC(C)C(C)O1 (stereo not drawn) [FCE 27050, N-[2,6-bis(1-methylethyl)phenyl]-N'-[(2RS,4RS,5RS)-4,5-dimethyl-2-phenyldioxolan-2-yl]methylurea] | 62 ± 5 | -60 | hypolipidaemic effect ([2]; Sprague-Dawley rats, […] cholesterol-enriched chow for a week, compound added to the diet): remarkable hypolipidaemic effect; ED50 [3, 6]: 0.51 mg/kg; ED50 [3, 7]: 0.83 mg/kg; ED50 [4, 6]: 0.16 mg/kg; ED50 [4, 7]: 0.19 mg/kg; accumulation of cholesterol in the liver [4]: prevented the accumulation of cholesterol in the liver; hypolipidaemic effect [4]: potent hypolipidaemic effect; accumulation of cholesterol in the liver [5]: prevented in a significative fashion the accumulation of cholesterol in the liver
